Measured values reported in patent US11028061B2, “Modulators of myocyte lipid accumulation and insulin resistance and methods of use thereof” (Sanford Burnham Prebys Medical Discovery Institute, priority 2015, dated 2021).

How the values were obtained:
DGAT1/2 = assay: Direct inhibition of DGAT1/2 activity; format: biochemical; details: data not shown
human skeletal myotubes = assay: Triglyceride accumulation in oleate-loaded human skeletal myotubes; format: cell-based; details: Myotube, 100 μM oleate 24 hours, read-out: EC50, inhibition of TAG accumulation
Experimental: Human skeletal myotubes were differentiated for 8 days. On day 7, 100 μM of oleic acid complexed to fatty acid-free BSA was added to the cells with the indicated concentration of test compound for 24 hours. Following incubation with oleate and compound, cells were formaldehyde fixed and stained with AdipoRed™ (Lonza). Triglyceride accumulation was measured using signal intensity at excitation 540/emission 590 nm (Bio-Tek Instruments, Inc.). Dose response curves were generated in Prism 6 (GraphPad Software). EC50 values were calculated using non-linear regression analysis. For biochemical measurement of triglyceride, human skeletal myotubes were incubated with oleate-BSA and test compound as described above. After 24 hour incubation, cells were collected with a lysis buffer containing 0.1% IGEPAL CA-630 (Sigma-Aldrich) in PBS. The harvested cells were sonicated for 5 seconds and then centrifuged at 10,000×g for 10 minutes at 4° C. The supernatant was removed and stored on ice. TAG levels were quantified using Infinity™ Triglycerides Liquid Stable Reagent (Thermo Scientific), following the manufacturer's instructions for colorimetric assay.
Student's t-test, Mann Whitney test, one-way ANOVA with Bonferroni post hoc test, or two-way ANOVA with Tukey post hoc test was performed to determine statistical significance as indicated. […]

TXNIP = TXNIP protein levels by western blot; format: cell-based; details: human myotubes
Experimental: FIGS. 4A-C show downregulation of TXNIP and ARRDC4 expression by SBI-477. (FIG. 4A) TXNIP and ARRDC4 mRNA levels as determined by quantitative RT-PCR in human myotubes treated with SBI-477 (10 μM) or DGAT1 inhibitor (DGATi, […]) for 24 hours in the absence or presence of 100 μM oleate (n=4). Expression is shown relative to vehicle/BSA treatment. (FIG. 4B) TXNIP gene expression following exposure to a dose range of SBI-477 for 24 hours (n=4). (FIG. 4C) Left, Effect of SBI-477 on TXNIP protein levels as determined by western blot analysis by SBI-477. Right, Quantitation of the TXNIP western blot data is shown (n=5). *p<0.05 vs. Vehicle/BSA control, †p<0.05 vs. Vehicle/oleate by one-way ANOVA with Bonferroni post hoc test. The data are shown as mean±SD.
(§1) Cells were lysed in the RIPA buffer containing 1% NP-40, 5 mM Na4P2O7, 1 mM EDTA, 20 mM NaF, 2 mM Na3VO4, 1× cOmplete™ protease inhibitor (Roche) and 1 mM phenylmethylsulfonyl fluoride. Whole cell lysates were subjected to SDS-PAGE and transferred to a nitrocellulose membrane. The blots were hybridized with specific antibodies and developed with enhanced chemiluminescence kit (Pierce). […] Protein quantification was performed using FluorChemQ (Alpha Innotech) and normalized to […]-actin or total protein where indicated.

[1] = Intracellular lipolysis rates; format: cell-based; details: data not shown
Akt = assay: Western blot of Akt phosphorylation; format: cell-based, human; details: 24 hours
Experimental: FIGS. 3A, B, C, E and F show SBI-477 stimulation of glucose uptake and activates insulin signaling in the absence of insulin. Human skeletal myotubes were incubated with SBI-477 at the indicated concentration for 24 hours and then treated with or without insulin (100 nM) for 30 minutes. Glucose ([3H]-2-deoxyglucose, 2-DG) uptake (FIG. 3A) and glycogen synthesis rates (FIGS. 3B and 3C) were measured (n=5) as described in Methods. *p<0.05 vs. Vehicle, no insulin, †p<0.05 vs. Vehicle/insulin by two-way ANOVA with Tukey's post hoc test. (FIG. 3E) Western blot analysis of human myotubes treated with SBI-477 for 24 hours was performed to determine the effect on steps of the insulin signaling pathway using specific Akt and IRS-1 phosphorylation sites as endpoints. Insulin treatment (100 nM) for 30 minutes was used as positive control. (FIG. 3F) Quantitation of the western blot data in […] is shown (n=5). *p<0.05 or **p<0.01 vs. Vehicle by one-way ANOVA with Bonferroni post hoc test. The data represent mean±SD.
Cells were lysed in the RIPA buffer containing 1% NP-40, 5 mM Na4P2O7, 1 mM EDTA, 20 mM NaF, 2 mM Na3VO4, 1× cOmplete™ protease inhibitor (Roche) and 1 mM phenylmethylsulfonyl fluoride. […] Protein quantification was performed using FluorChemQ (Alpha Innotech) and normalized to […]-actin or total protein where indicated.

[2] = tested on: fatty acid transporter, CD36; assay: CD36 gene expression; format: cell-based; details: data not shown
Experimental: Total RNA was isolated using RNeasy Mini Kit (Qiagen) according to the manufacturer's instructions. cDNA was synthesized using the Affinity Script cDNA Synthesis Kit (Stratagene) with 0.5 μg of total RNA. PCR reactions were performed in triplicate […] Roche LightCycler® 480 Instrument II) with specific primers for each gene.

S6K = assay: Western blot of pS6K (T389); format: cell-based, human; details: 24 hours
Experimental: FIGS. 3D and G show SBI-477-mediated increase in glucose uptake in oleate-loaded skeletal myotubes (FIG. 3D) SBI-477 increases glucose uptake in oleate-loaded human skeletal myotubes. Basal and insulin-stimulated [3H]2-DG uptake was measured in human skeletal myotubes following treatment with SBI-477 for 24 hours in the presence of 100 μM oleate or BSA as a control. *p<0.05 vs. vehicle, †p<0.05 vs. vehicle/insulin by one-way ANOVA with Bonferroni post hoc test. FIG. 3G—Western blot analysis (left) of human myotubes treated with SBI-477 for 24 hours was performed to determine activation of S6K and AMPK using the indicated phospho-specific antibodies. Insulin treatment (100 nM) for 30 minutes was used as positive control. Quantitation (right) of the Western blot data is shown (n=4-5). *p<0.05 vs. Vehicle by one-way ANOVA with Bonferroni post hoc test. The data represent mean±SD.
as §1

In the case of `COc1ccc(-c2csc(NC(=O)c3ccc(OCC(=O)N4CCOCC4)c(OC)c3)n2)cc1` [Cpd. 7, 3-methoxy-N-(4-(4-methoxyphenyl)thiazol-2-yl)-4-(2-morpholino-2-oxoethoxy)benzamide], the “Direct inhibition of DGAT1/2 activity” value (DGAT1/2) is reported as “not found that SBI-477 directly inhibits”, the EC50 (human skeletal myotubes) is reported as roughly 1000 nM and the TXNIP protein levels (TXNIP) is reported as “reduced by SBI-477 in dose-dependent manner”. The Intracellular lipolysis rates [1] was “not due to blocking cellular fatty acid uptake or increasing intracellular lipolysis rates”, the “Phosphorylation of Akt” value (Akt) was “also increased” and the “Gene expression of CD36” value [2] was “no effect”. The “Levels of pS6K (T389)” value (S6K) was “reduced”.
